Counter-ions that a name gives are not always drawn. Like-named read-outs stand apart in the source and are kept apart here.
Key:
Na^+/H^+-Austauscher = molecular target: T1, Na^+/H^+-Austauscher (Homo sapiens, UniProt P19634); assay: Inhibition of the Na+/H+ exchanger in human colon cancer cells (HT-29), BCECF fluorescence pH measurement; format: cell-based; settings: HT-29-Zellen; 4 min, 37°C, pH 7.0
T1 construct: HT-29-Zellen werden bei 37°C, 5% CO2 in Wachstumsmedium inkubiert; endogenous in cells; host or cells: HT-29 human colon cancer cells
Method: Inhibition des Na^+/H^+-Austauschers in humanen Darmkrebszellen (HT-29):
HT-29-Zellen werden bei 37°C, 5% CO2 in Wachstumsmedium inkubiert. Nach 3-5 Tagen wurde das Wachstumsmedium entfernt, die Zellen gewaschen und mit 7.5 µM BCECF-AM (pH-sensitiver Fluoreszenzfarbstoff) bei 37°C ohne CO2 beladen. Nach 30 min werden die Zellen gewaschen und mit folgendem Medium angesäuert: 70 mM Cholinchlorid, 20 mM NH4Cl, 1 mM MgCl2, 1.8 mM CaCl2, 5 mM Glucose und 15 mM HEPES, pH 7.5.
Nach 6 min Inkubation bei 37°C ohne CO2 werden die Zellen gewaschen und für 5 min mit Waschmedium inkubiert: 120 mM Cholinchlorid, 5 mM KCl, 1 mM MgCl2, 1.8 mM CaCl2, 5 mM Glucose und 15 mM MOPS, pH 7.0.
Das Waschmedium wird entfernt und Kontrollmedium mit oder ohne Testverbindung wird zugegeben: 120 mM NaCl, 5 mM KCl, 1 mM MgCl2, 1.8 mM CaCl2, 5 mM Glucose, 15 mM MOPS, pH 7.0.
Die Zellen werden 4 min bei 37°C ohne CO2 inkubiert und fluorimetrisch (CytoFluor 2350) vermessen. Die Fluoreszenz des Farbstoffes BCECF wird bei den Anregungswellenlängen 485 nm (pH-sensitiv) und 440 nm (nicht pH-sensitiv) und bei der Emissionswellenlänge 530 nm gemessen. Der cytoplasmatische pH wird aus dem Verhältnis der Fluoreszenzen bei 485 und 440 nm berechnet. Das Fluoreszenzverhältnis wird durch Messung des Fluoreszenzsignals nach Äquilibrierung von externem und internem pH mit Nigericin kalibriert.

[1] = Pharmacokinetics in male rats after i.v. and oral administration; format: in vivo, Ratten; settings: not fasted; for F: non-compartmental analysis (TopFit); for half-life: rat, plasma
Method: Pharmakokinetische Daten:
Für die Untersuchungen wurden männliche, ca. 200 g schwere Ratten (nicht nüchtern), verwendet. Zur intravenösen und oralen Applikation werden die Substanzen in einer angesäuerten wässerigen Lösung (pH 3) gelöst. Einzelne Bolus Injektionen (0.5 mg/kg i.v., 2.5 mg/kg p.o.) werden in die Schwanzvene injiziert (0.2 ml/200g) oder über eine Kanüle in den Magen gegeben (1 ml/200 g). Die Applikationslösungen werden analysiert, um die applizierte Dosis zu bestätigen. 0.5 ml Aliquots Blut werden vom retro-orbitalen Venenplexus unter kurzer Halothan-Betäubung mit heparinisierten Glass-Kapillaren nach folgendem Schema entnommen: • nach i.v. Applikation: 5 min, 15 min, 30 min, 1 h, 2 h, 4 h, 6 h, 8h; • nach oraler Applikation: 15 min, 1 h, 2 h, 4 h, 6 h, 8 h, 24 h, 32 h.
Die Proben werden zentrifugiert und das Plasma bis zur Analyse bei - 20°C gelagert. Die Proben-Vorbereitung erfolgt durch flüssig-flüssig Extraktion mit einem internen Standard. Die Plasmaextrakte werden mit Reversed Phase HPLC, gekoppelt mit einem Elektrospray-Tandem-Massenspektrometer analysiert. Die pharmakokinetischen Daten werden aus den entsprechenden PlasmaKonzentrationen durch Kompartiment-freie Analyse mit dem TopFit Programm bestimmt (Heinzel, G., Woloszczak, R., Thomann, P. TopFit 2.0 - Pharmacokinetic and pharmacodynamic data analysis, system for the PC, Gustav Fischer Verlag, Stuttgart, Jena, New York, 1993).

[2] = iv, 0.5 mg/kg i.v., read-out: t1/2 (i.v.) (converted)
[3] = po, 2.5 mg/kg p.o., read-out: t1/2 (p.o.) (converted)

T1 sequence (P19634 whole entry): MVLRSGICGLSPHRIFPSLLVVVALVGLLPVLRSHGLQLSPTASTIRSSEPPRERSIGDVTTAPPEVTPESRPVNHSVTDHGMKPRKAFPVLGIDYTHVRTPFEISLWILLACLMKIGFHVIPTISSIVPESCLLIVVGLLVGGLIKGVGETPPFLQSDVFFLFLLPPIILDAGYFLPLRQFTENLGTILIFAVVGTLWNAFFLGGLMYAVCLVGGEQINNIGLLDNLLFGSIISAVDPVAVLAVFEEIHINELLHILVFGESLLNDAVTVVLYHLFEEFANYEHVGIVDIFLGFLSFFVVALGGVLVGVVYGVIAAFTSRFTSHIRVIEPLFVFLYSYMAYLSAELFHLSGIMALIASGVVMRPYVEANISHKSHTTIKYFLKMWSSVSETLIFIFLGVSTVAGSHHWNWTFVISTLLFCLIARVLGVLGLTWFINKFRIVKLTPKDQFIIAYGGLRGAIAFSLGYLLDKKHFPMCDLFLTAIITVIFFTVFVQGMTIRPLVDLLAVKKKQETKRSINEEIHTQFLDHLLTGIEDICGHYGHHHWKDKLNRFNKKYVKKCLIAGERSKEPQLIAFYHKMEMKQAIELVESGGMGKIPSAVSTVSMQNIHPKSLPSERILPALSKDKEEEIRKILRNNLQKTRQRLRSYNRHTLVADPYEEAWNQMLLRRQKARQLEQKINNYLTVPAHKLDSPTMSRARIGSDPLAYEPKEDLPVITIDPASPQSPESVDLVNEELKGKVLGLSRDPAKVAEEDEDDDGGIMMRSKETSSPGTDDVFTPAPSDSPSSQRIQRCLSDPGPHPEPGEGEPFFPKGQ

SMILES | IC50 (Na^+/H^+-Austauscher) | F ([1]; 0.5 mg/kg i.v., 2.5 mg/kg p.o.) | half-life [1, 2] | half-life [1, 3]
COc1cccc(C(=O)N2CCN(c3ccc(C(=O)NC(=N)N)cc3C(F)(F)F)CC2)c1 [Beispiel 1, 4-(4-(3-Methoxyphenylcarbonyl)-1-piperazinyl)-3-trifluormethylbenzoylguanidin-hydrochlorid] | 0.076 µM |  |  | 
Cc1cccc(C(=O)N2CCN(c3ccc(C(=O)NC(=N)N)cc3C(F)(F)F)CC2)c1 [Beispiel 8, 4-(4-(3-Methylphenylcarbonyl)-1-piperazinyl)-3-trifluormethylbenzoylguanidin-methansulfonat] | 0.061 µM |  |  | 
COc1ccccc1C(=O)N1CCN(c2ccc(C(=O)NC(=N)N)cc2C(F)(F)F)CC1 [Beispiel 4, 4-(4-(2-Methoxyphenylcarbonyl)-1-piperazinyl)-3-trifluormethylbenzoylguanidin-hydrochlorid] | 0.084 µM |  |  | 
N=C(N)NC(=O)c1ccc(N2CCN(C(=O)c3ccccn3)CC2)c(C(F)(F)F)c1 [Beispiel 10, 4-(4-(2-Pyridylcarbonyl)-1-piperazinyl)-3-trifluormethyl-benzoylguanidindimethansulfonat] | 0.079 µM |  |  | 
N=C(N)NC(=O)c1ccc(N2CCN(C(=O)c3ccc[nH]3)CC2)c(C(F)(F)F)c1 [Beispiel 2, 4-(4-(2-Pyrrolylcarbonyl)-1-piperazinyl)-3-trifluormethylbenzoylguanidin-methansulfonat] |  | 63 | 1.3 h | 5 h
N=C(N)NC(=O)c1ccc(N2CCN(C(=O)c3ccco3)CC2)c(C(F)(F)F)c1 [Beispiel 7, 4-(4-(2-Furylcarbonyl)-1-piperazinyl)-3-trifluormethyl-benzoylguanidinmethansulfonat] | 0.084 µM |  |  | 
N=C(N)NC(=O)c1ccc(N2CCN(C(=O)c3cccc(C(F)(F)F)c3)CC2)c(C(F)(F)F)c1 [Beispiel 5, 4-(4-(3-Trifluormethylphenylcarbonyl)-1-piperazinyl)-3-trifluormethylbenzoylguanidin-hydrochlorid] | 0.023 µM | 58 | 5.4 h | 7.5 h
N=C(N)NC(=O)c1ccc(N2CCN(C(=O)c3ccc(F)cc3)CC2)c(C(F)(F)F)c1 [Beispiel 3, 4-(4-(4-Fluorphenylcarbonyl)-1-piperazinyl)-3-trifluormethylbenzoylguanidin-methansulfonat] | 0.038 µM | 71 | 3.1 h | 5.4 h

From EP1165534B1, “BENZOYLGUANIDINE DERIVATIVES WITH ADVANTAGEOUS PROPERTIES, METHOD FOR PRODUCING THEM AND THEIR USE IN THE PRODUCTION OF MEDICAMENTS” (Boehringer Ingelheim Pharma GmbH & Co.KG, priority 1998, dated 2000)
